Results on six molecules are retold here after patent publication US9375000B2, “Pesticidal arylpyrrolidines” (Bayer Intellectual Property GmbH, priority 2011, dated 2016).

Data set [1] in a line: log P by HPLC on reversed phase columns (EEC directive 79/831 Annex V.A8). The format is physicochemical. Here is the method: Calibration was done with not branched alkan2-ones (with 3 to 16 carbon atoms) with known log P-values (measurement of log P values using retention times with linear interpolation between successive alkanones). lambda-maX-values were determined using UV-spectra from 200 nm to 400 nm and the peak values of the chromatographic signals.

Data set [2] relates to mustard beetle larvae (Phaedon cochleariae). The experiment in a line: Phaedon cochleariae test (PHAECO spray application). The format is in vivo. The note with it: application rate 500 g/ha; after 7 days. Here is the method: To produce a suitable preparation of active compound, 1 part by weight of active compound is mixed with the stated amount of solvent and emulsifier, and the concentrate is diluted with emulsifier-containing water to the desired concentration. Chinese cabbage (Brassica pekinesis) leaf-disks are sprayed with a preparation of the active ingredient of the desired concentration. Once dry, the leaf disks are infested with mustard beetle larvae (Phaedon cochleariae). After 7 days mortality in % is determined. 100% means that all beetle larvae have been killed and 0% means that none of the beetle larvae have been killed.

The subject of data set [3] is fall armyworm larvae (Spodoptera frugiperda). The experiment in a line: Spodoptera frugiperda test (SPODFR spray application). The format is in vivo. The note with it: application rate 500 g/ha; after 7 days. Here is the method:
To produce a suitable preparation of the active compound, 1 part by weight of active compound is mixed with the stated amount of solvent and emulsifier, and the concentrate is diluted with emulsifier-containing water to the desired concentration. Maize (Zea mais) leaf sections are sprayed with a preparation of the active ingredient of the desired concentration. Once dry, the leaf sections are infested with fall armyworm larvae (Spodoptera frugiperda). After 7 days mortality in % is determined. 100% means that all caterpillars have been killed and 0% means that none of the caterpillars have been killed.

In data set [4] the test system is two spotted spidermite (Tetranychus urticae), OP-resistant. In words: Tetranychus urticae test, OP-resistant (TETRUR spray application). The format is in vivo. The note with it: application rate 500 g/ha; after 6 days. Here is the method: To produce a suitable preparation of active compound, 1 part by weight of active compound is mixed with the stated amount of solvent and emulsifier, and the concentrate is diluted with emulsifier-containing water to the desired concentration. French beans (Phaseolus vulgaris) which are heavily infested with all stages of the two spotted spidermite (Tetranychus urticae), are sprayed with a preparation of the active ingredient at the desired concentration. After 6 days mortality in % is determined. 100% means that all spider mites have been killed and 0% means that none of the spider mites have been killed.

Another data set has as its system Ctenocephalides felis. The experiment in a line: Test against Ctenocephalides felis (CTECFE), blood feeding. The format is in vivo. The note with it: Ctenocephalides felis, in Bos taurus, 48 h, read-out: activity (mortality).
A further data set has as its system Musca domestica. The experiment in a line: Test against Musca domestica. The format is in vivo. The note with it: Musca domestica, 48 h, read-out: activity (mortality).
Data set [5] relates to Larvae of Spodoptera litura. The experiment in a line: Larvae of Spodoptera litura, method using artificial feeds. The format is in vivo. The following applies: Spodoptera litura, 168 h, artificial feed, after 7 days, read-out: insecticidal activity (pesticidal ratio); for pest or weed control at 20 ppm: active compound concentration 20 ppm. The gist of the method: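 Compound formulated in dimethylformamide with polyoxyethylene alkyl phenyl ether emulsifier, water-diluted and poured onto artificial diet. Five 3rd-instar Spodoptera litura larvae per cup, held at 25° C and 50-60% humidity. Mortality after 7 days expressed as pesticidal ratio.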

Data set [6] deals with adult engorged female Boophilus microplus ticks. In words: Test against Boophilus microplus (dip). The format is in vivo. The note with it: Rhipicephalus microplus, 168 h, read-out: activity (mortality).
The subject of data set [7] is Tobacco Cutworm (Spodoptera litura) Larvae. In words: Tobacco cutworm (Spodoptera litura) larvae, sweet potato leaf dip test. The format is in vivo. The note with it: active compound concentration 20 ppm; dead larvae after 7 days. The method in brief: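 Sweet potato leaves were dipped in DMF/emulsifier test solution at the set concentration and air-dried. Ten third-instar S. litura larvae were placed per dish at 25 °C, with fresh leaves added on days 2 and 4. Mortality was counted on day 7, given as % insecticidal activity averaged over two dishes.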

In data set [8] the test system is Lucilia cuprina 1st instar larvae. In words: Test against Lucilia cuprina larvae. The format is in vivo. The note with it: 48 h, read-out: activity (larval mortality). As to the method:
Solvent: dimethyl sulfoxide
10 mg active compound are dissolve in 0.5 mL dimethyl sulfoxide. Serial dilutions are made to obtain the desired rates.
Approximately 20 Lucilia cuprina 1st instar larvae are transferred into a test tube containing 1 cm^3 of minced horse meat and 0.5 ml aqueous dilution of test compound. After 48 hrs percentage of larval mortality are recorded. 100% efficacy=all larvae are killed, […].

Data set [9] has as its system Two-Spotted Spider Mite (Tetranychus urticae). In words: Two-spotted spider mite (Tetranychus urticae) spray test on kidney bean. The format is in vivo. The following applies: Tetranychus urticae, 168 h; active compound concentration 20 ppm; after 7 days; read-out: acaricidal activity. The gist of the method:
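Kidney bean plants at the two-leaf stage carried 50-100 adult mites and were sprayed one day later with compound in DMF/polyoxyethylene alkyl phenyl ether diluted in water. Ammonium salt and penetration enhancer at 1000 ppm were added if needed. Acaricidal activity (% mites killed) was scored after 7 days in a greenhouse.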

In data set [10] the test system is Cucurbit Leaf Beetle (Aulacophora femoralis). In words: Cucurbit leaf beetle (Aulacophora femoralis) cucumber leaf dip test. The format is in vivo. The following applies: after 7 days. The method in brief:
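Cucumber leaves dipped in compound formulated with DMF and polyoxyethylene alkyl phenyl ether, diluted in water, with ammonium salt or ammonium salt plus penetration enhancer at 1000 ppm added if necessary; dried leaves placed on sterilized soil with five second-instar larvae. Kept at 25° C; larval mortality counted after 7 days.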

The next data set has as its system Thrips palmi. The experiment in a line: Thrips palmi spray test (THRIPL). The format is in vivo. The following applies: active compound concentration 20 ppm; after 6 days. The gist of the method:
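Cucumber seedlings sprayed with compound formulated in DMF/polyoxyethylene alkyl phenyl ether and diluted in water, ammonium salt ± penetration enhancer at 1000 ppm added if needed. About 100 T. palmi eggs attached, plants held caged at 100% humidity, 23 °C. Percent activity scored from feeding damage after 6 days, 100 = no damage, 0 = as untreated.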

The mark [11] stands for this setting: Aulacophora, foliar, 168 h, active compound concentration 20 ppm, read-out: insecticidal activity.

Molecules are shown by their SMILES.

As for `Cc1cc(N2CCC(c3cc(Cl)cc(Cl)c3)(C(F)(F)F)C2O)ccc1CNC(=O)C1CC1` (mixture of isomers) [A1-77], the log P – broadly, a log measure of how a compound divides between an organic and an aqueous phase – in data set [1] was 3.91. For the same molecule, the “activity (mortality)” value in [2] and in data set [3] was 100% each time.

For `Cc1cc(N2CCC(c3cc(Cl)cc(Cl)c3)(C(F)(F)F)C2O)ccc1CNC(=O)CC(F)(F)F` (mixture of isomers) [A1-79], the “activity (mortality)” value in [4] was 90%; in data set [2] it was 100%; in [3] it was 83%. Further, in data set [1], the lipophilicity (log P) is 4.09.

In the case of `CCC(=O)NCc1ccc(N2CCC(c3cc(Cl)c(Cl)c(Cl)c3)(C(F)(F)F)C2O)nc1C(F)(F)F` (stereo not drawn) [A3-13, N-({6-[2-hydroxy-3-(3,4,5-trichlorophenyl)-3-(trifluoromethyl)-pyrrolidin-1-yl]-2-(trifluoromethyl)pyridin-3-yl}methyl)propanamide], the mortality at 100 ppm (in the data set with Ctenocephalides felis; with Musca domestica; in data set [8]) was 100% in each case. The pest or weed control at 20 ppm in data set [5], in data set [9] and in data set [10] (setting [11]) was 100% throughout. In data set [6], the mortality (usually the share of the test organisms that died) at 20 ppm is 100%. In addition, in [7], the insecticidal activity is listed as 100%.

On to `CCC(=O)NCc1cc(F)c(N2CCC(c3cc(Cl)cc(Cl)c3)(C(F)(F)F)C2O)nc1Cl` (stereo not drawn) [A3-356], for which the “activity (mortality)” value in data set [4], in [2] and in data set [3] was 100% throughout. The logP (usually a log measure of how a compound divides between an organic and an aqueous phase) in data set [1] (HPLC on reversed phase columns) amounted to 3.86. The same molecule came in with an insecticidal activity in data set [10] (active compound concentration 20 ppm) of 100%.

On to `O=C(NCc1cc(F)c(N2CCC(c3cc(Cl)cc(Cl)c3)(C(F)(F)F)C2O)nc1Cl)C1CC1` (stereo not drawn) [A3-359], for which the “activity (mortality)” value in [4], in [2] and in data set [3] was 100% each time.

On to `O=C(NCc1cnc(N2CCC(c3cc(C(F)(F)F)cc(C(F)(F)F)c3)(C(F)(F)F)C2O)cc1C(F)(F)F)C1CC1` (stereo not drawn) [A5-27, N-{[6-{3-[3,5-bis(trifluoromethyl)phenyl]-2-hydroxy-3-(trifluoromethyl)pyrrolidin-1-yl}-4-(trifluoromethyl)pyridin-3-yl]methyl}cyclopropanecarboxamide], for which the mortality at 100 ppm (in the data set with Ctenocephalides felis; in the data set with Musca domestica; in [6]; in data set [8]) was 100% each time. For the same molecule, the pest or weed control at 4 ppm in [5] (active compound concentration 4 ppm) came out at 100%; in [10] (Aulacophora, foliar, 168 h, active compound concentration 4 ppm, read-out: insecticidal activity), 100%. Further, the pest or weed control at 20 ppm in [5], in data set [9] and in data set [10] (setting [11]) was 100% each time. For the same molecule, the “insecticidal activity (by feeding damage degree)” value with Thrips palmi is on record as 90%.
